Test results from patent US7307087B2, “Treatment of affective disorders by the combined action of a nicotinic receptor agonist and a monoaminergic substance” (Neurosearch A/S, priority 2000, dated 2007).

Legend:
NMRI mice [1] = assay: Mouse Forced Swim Test (mFST); assay type: in vivo; settings: compound alone, 0.3, 1, 3, 10 mg/kg s.c., 30 minutes pre-treatment
Protocol: The Forced Swim Test therefore is considered predictive of a potential antidepressant pharmacological effect.
Female NMRI mice (of 20-25 g) are habituated to the laboratory (a 12 hour light/dark cycle) for at least 16 hours before the experiment.
30 minutes after s.c. injection of either vehicle or drug, the mouse is placed in a glass beaker (d=16 cm; 5000 ml) with water (24° C.) up till 10 cm from the top edge. For the subsequent 6 minutes the duration of immobility defined as swim speed less than 2.5 cm/minute, and forced swim distance defined as distance swum with a speed above 5 cm/minute, is recorded. There are 8 mice in each group.
The activity of the mouse is tracked by the View Point system for the measurement of distance, immobility, and speed.
Time of immobility ±SEM (seconds) and forced swim distance ±SEM (cm) in 15 seconds time intervals are presented and plotted in SigmaPlot. Mean total immobility time and total swim distance in the time interval 60-360 seconds are calculated and presented for each group. The dose showing significant difference from the vehicle treated group is reported as the Minimal Effective Dose (MED s.c. mg/kg).

NMRI mice [2] = settings: systemic administration; mice in a small water pool; background statement; cited from earlier work

melting point [°C]	SMILES	further results
195 to 196	Clc1cncc(N2CCNCC2)c1.O=C(O)/C=C/C(=O)O	–
187 to 190	Ic1ccc(N2CCNCC2)nn1.O=C(O)/C=C/C(=O)O	–
217	O=C(O)/C=C/C(=O)O.c1ccc2c(c1)ncn2-c1ccc(N2CCNCC2)nn1	–
143.9	CN1C2CCC1CN(c1ccccc1)CC2.O=C(O)/C=C/C(=O)O (racemic)	–
–	Cl.Cl.Clc1ccc(N2CCNCC2)cn1 [Compound 1C3, 1-(6-Chloro-3-pyridyl)-piperazine Dihydrochloric Acid Salt]	forced swimming (NMRI mice [1]): did not affect forced swimming
–	CNCCCN1c2ccccc2CCc2ccccc21 [Desipramine]	forced swim distance (NMRI mice [2]): induces an increase in the forced swim distance
